The text below walks through data of patent publication US6958323B2 (priority 1997, dated 2005).

Assay [1] has as its system rat striatal synaptosomes. In kind it is cell-based.
The subject of assay [2] is rat striatal synaptosomes. The following applies: cited from earlier work.
In assay [3] the test system is rat hippocampal synaptosomes. The following applies: read-out: EC50 for release of hippocampal norepinephrine; cited from earlier work.

pEC50: −log10 of the molar value. Like-named read-outs stand apart in the source and are kept apart here.

For `CNC1(C)C2CCC(C2)C1(C)C` (stereo not shown) [mecamylamine], the “Block of nicotine-stimulated [3H]-dopamine release” value in assay [1] was “fully blocked”.

Consider `CN1CCCC1c1cccnc1` (stereo not shown) [nicotine], for which the pEC50 was 6.80 in assay [2] (read-out: EC50 for increase of [3H]-dopamine release), 6.80 in assay [2] (read-out: EC50 for release of striatal dopamine) and 5.19 in assay [3].
